Test results published in PubChem BioAssay AID1963966 (Molecular Pharmacology Branch, DTP, NCI, 2024).

Test system: 935938-334-R-J1-PDC spheroids with HUVEC/MSC, viability
Assay: Anticancer human tumor 935938-334-R-J1-PDC patient-derived small intestine adenocarcinoma cell line growth inhibition [PI3K]
Conditions: for IC50: curve of first compound; for viability, T/C: stronger effect = lower value; active = viability on the fitted dose curve at most 10% of control; inactive = the rest
Description: Combinatorial screen of targeted agents with the PI3K inhibitors inavolisib, alpelisib, duvelisib, and copanlisib in multi-cell type tumor spheroids
A high-throughput screen of multi-cell type tumor spheroids was designed to identify active combinations of targeted small molecules and PI3K pathway inhibitors. Complex spheroids include a stromal component modeled by human endothelial cells (HUVEC) and fibroblasts modeled by human mesenchymal stem cells (MSCs). The concentration ranges selected for each drug and investigational agent were based upon clinically achievable concentrations if the clinical Cmax of the agent was known.
Compounds. The drugs and investigational agents: inavolisib (NSC800729), alpelisib (NSC765974), duvelisib (NSC772469), copanlisib (NSC816437), ipatasertib (NSC767898), afuresertib (NSC778305), talazoparib (NSC767125), sapanisertib (NSC764658), selumetinib (NSC741078), tovorafenib (DAY101, NSC766906), vemurafenib (NSC761431), ravoxertinib (NSC781343), sotorasib (NSC818433), MRTX1133 (NSC 836407), abemaciclib (NSC 768073), palbociclib (NSC758247), venetoclax (NSC 766270), SY5609 (NSC837396), enzalutamide (NSC755605), and darolutamide (NSC825331), were obtained from the National Cancer Institute (NCI) Developmental Therapeutics Program Chemical Repository. The FDA-approved anticancer drug set is available from the NCI Developmental Therapeutics Program. […] The stock solutions were prepared in dimethyl sulfoxide (DMSO, Sigma-Aldrich, St. Louis, MO, cat. D2650) at 800-fold the tested concentration and stored at -70 degrees C prior to their use. All drugs and investigational agents were tested over a range starting from a high concentration at or near the clinical Cmax and decreasing in half-log increments. If the clinical Cmax for an agent had not been determined, the highest concentration tested was 10 microM.
Cell Culture. All cells were maintained in an incubator at 37 degrees C and 5% CO2 with 95% humidity. The PDC lines were cultured according to standard operating procedures established by the NCI PDMR (https://pdmr.cancer.gov/sops/default.htm). All PDCs were thawed and cultured in Matrigel-coated flasks prepared with a working solution of 1X Ham's F-12 nutrient mix, without supplementation (Invitrogen, Waltham, MA, cat. 11765054), 100 U/mL penicillin-streptomycin (Invitrogen, cat. 15140122), and 2.5% Matrigel (Corning Inc., Corning, NY, cat. 354248) for the first three passages. The 354836-022-R-J1-PDC, 475296-252-R-J1-PDC, and 997726-040-R-J2-PDC lines were cultured in 6A media, which includes advanced DMEM/F-12 (Thermo Fisher Scientific, cat. 12634028), 10 mM HEPES (Thermo Fisher Scientific, cat. 15630080), 1X GlutaMAX supplement (Thermo Fisher Scientific, cat. 35050061), 0.1 mg/mL primocin (InvivoGen, San Diego, CA, cat. ant-pm-2), 10% defined fetal bovine serum, heat inactivated (HyClone Laboratories Inc., Logan, UT, cat. SH30070.03HI), 50% L-WRN conditioned media (ATCC, cat. CRL-3276), 1.25 mM N-Acetyl-L-cysteine (Sigma-Aldrich, cat. A9165), 10 mM nicotinamide (Sigma-Aldrich, cat. N0636), 1X B-27 supplement (Thermo Fisher Scientific, cat. 17504044), 1X N-2 supplement (Thermo Fisher Scientific, cat. 17502048), and 10 microM Y-27632 dihydrochloride (Tocris Bioscience, Bristol, United Kingdom, cat. 1254). The 624824-186-R-J2-PDC line was cultured in 6C/Colon 1B media, which includes all 6A media components plus 50 ng/mL human EGF recombinant protein (Thermo Fisher Scientific, cat. PHG0311). […]

[1] = second compound 0.0316 µM, first compound 0.0316 µM
[2] = second compound 0.0316 µM, first compound 0.1 µM
[3] = second compound 0.0316 µM, first compound 0.316 µM
[4] = second compound 0.0316 µM, first compound 1 µM
[5] = second compound 0.0316 µM, first compound 3.16 µM
[6] = second compound 0.0316 µM, first compound 10 µM
[7] = second compound 0.1 µM, first compound 0.0316 µM
[8] = second compound 0.1 µM, first compound 0.1 µM
[9] = second compound 0.1 µM, first compound 0.316 µM
[10] = second compound 0.1 µM, first compound 1 µM
[11] = second compound 0.1 µM, first compound 3.16 µM
[12] = second compound 0.1 µM, first compound 10 µM
[13] = second compound 0.316 µM, first compound 0.0316 µM
[14] = second compound 0.316 µM, first compound 0.1 µM
[15] = second compound 0.316 µM, first compound 0.316 µM
[16] = second compound 0.316 µM, first compound 1 µM
[17] = second compound 0.316 µM, first compound 3.16 µM
[18] = second compound 0.316 µM, first compound 10 µM
[19] = second compound 1 µM, first compound 0.0316 µM
[20] = second compound 1 µM, first compound 0.1 µM
[21] = second compound 1 µM, first compound 0.316 µM
[22] = second compound 1 µM, first compound 1 µM
[23] = second compound 1 µM, first compound 3.16 µM
[24] = second compound 1 µM, first compound 10 µM
[25] = second compound 3.16 µM, first compound 0.0316 µM
[26] = second compound 3.16 µM, first compound 0.1 µM
[27] = second compound 3.16 µM, first compound 0.316 µM
[28] = second compound 3.16 µM, first compound 1 µM
[29] = second compound 3.16 µM, first compound 3.16 µM
[30] = second compound 3.16 µM, first compound 10 µM
[31] = second compound 10 µM, first compound 0.0316 µM
[32] = second compound 10 µM, first compound 0.1 µM
[33] = second compound 10 µM, first compound 0.316 µM
[34] = second compound 10 µM, first compound 1 µM
[35] = second compound 10 µM, first compound 3.16 µM
[36] = second compound 10 µM, first compound 10 µM
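Note: compound exposure lasted seven days before viability was read.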
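Throughout, for viability, T/C: percent of vehicle DMSO treated spheroid viability so 100% = untreated.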

CC(C)NCC(C(=O)N1CCN(c2ncnc3c2C(C)CC3O)CC1)c1ccc(Cl)cc1 (stereo unspecified) + Cc1nc(NC(=O)N2CCCC2C(N)=O)sc1-c1ccnc(C(C)(C)C(F)(F)F)c1
> 10000 nM: IC50 (second compound 0.1 µM)
1840 nM: IC50 (second compound 0.316 µM)
2020 nM: IC50 (second compound 0.0316 µM)
1290 nM: IC50 (second compound 1 µM)
inactive: viability, T/C [1] 80.2% | viability, T/C [2] 104% | viability, T/C [3] 75.9% | viability, T/C [4] 61.5% | viability, T/C [5] 44.3% | viability, T/C [6] 37.4% | viability, T/C [7] 89.2% | viability, T/C [8] 101% | viability, T/C [9] 82.5% | viability, T/C [10] 50.5% | viability, T/C [11] 61% | viability, T/C [12] 44.2% | viability, T/C [13] 94.7% | viability, T/C [14] 80.5% | viability, T/C [15] 86.2% | viability, T/C [16] 55.8% | viability, T/C [17] 49.4% | viability, T/C [18] 38.5% | viability, T/C [19] 70% | viability, T/C [20] 67.4% | viability, T/C [21] 72.8% | viability, T/C [22] 54.4% | viability, T/C [23] 33.6% | viability, T/C [24] 35.8% | viability, T/C [25] 74.9% | viability, T/C [26] 43% | viability, T/C [27] 46.5% | viability, T/C [28] 52.8% | viability, T/C [29] 39.9% | viability, T/C [30] 27.8% | viability, T/C [31] 47.9% | viability, T/C [32] 52.5% | viability, T/C [33] 51% | viability, T/C [34] 35.9% | viability, T/C [35] 39.3% | viability, T/C [36] 32.2%
79.6 nM: IC50 (second compound 3.16 µM)
328 nM: IC50 (second compound 10 µM)

CNC(=O)c1ccc(N2C(=S)N(c3ccc(C#N)c(C(F)(F)F)c3)C(=O)C2(C)C)cc1F + Cc1nc(NC(=O)N2CCCC2C(N)=O)sc1-c1ccnc(C(C)(C)C(F)(F)F)c1
< 31.6 nM: IC50 (second compound 3.16 µM)
162 nM: IC50 (second compound 10 µM)
inactive: viability, T/C [1] 111% | viability, T/C [2] 84.3% | viability, T/C [3] 84.9% | viability, T/C [4] 91.9% | viability, T/C [5] 100% | viability, T/C [6] 88% | viability, T/C [7] 81.7% | viability, T/C [8] 88.7% | viability, T/C [9] 65.5% | viability, T/C [10] 84.4% | viability, T/C [11] 76.8% | viability, T/C [12] 62.9% | viability, T/C [13] 103% | viability, T/C [14] 59.7% | viability, T/C [15] 81.9% | viability, T/C [16] 69.6% | viability, T/C [17] 77% | viability, T/C [18] 56.7% | viability, T/C [19] 75.2% | viability, T/C [20] 76.8% | viability, T/C [21] 70.2% | viability, T/C [22] 101% | viability, T/C [23] 56.2% | viability, T/C [24] 70.7% | viability, T/C [25] 39.6% | viability, T/C [26] 43.9% | viability, T/C [27] 51% | viability, T/C [28] 51.5% | viability, T/C [29] 47% | viability, T/C [30] 47.3% | viability, T/C [31] 45.6% | viability, T/C [32] 59.7% | viability, T/C [33] 46.2% | viability, T/C [34] 39.3% | viability, T/C [35] 38.5% | viability, T/C [36] 34.3%
> 10000 nM: IC50 (second compound 0.0316 µM) | IC50 (second compound 0.1 µM) | IC50 (second compound 0.316 µM) | IC50 (second compound 1 µM)

Cn1nccc1Nc1nccc(-c2ccn(C(CO)c3ccc(Cl)c(F)c3)c(=O)c2)n1 (stereo unspecified) + CC(Nc1ccc2c(c1)OCCn1cc(N3C(=O)OCC3C(F)F)nc1-2)C(N)=O
1430 nM: IC50 (second compound 0.0316 µM)
505 nM: IC50 (second compound 0.316 µM)
777 nM: IC50 (second compound 0.1 µM)
1400 nM: IC50 (second compound 0.00316 µM)
835 nM: IC50 (second compound 0.01 µM)
inactive: viability, T/C (second compound 0.00316 µM, first compound 0.0316 µM) 101% | viability, T/C (second compound 0.00316 µM, first compound 0.1 µM) 92.6% | viability, T/C (second compound 0.00316 µM, first compound 0.316 µM) 70.6% | viability, T/C (second compound 0.00316 µM, first compound 1 µM) 57.2% | viability, T/C (second compound 0.00316 µM, first compound 3.16 µM) 37.5% | viability, T/C (second compound 0.00316 µM, first compound 10 µM) 37% | viability, T/C (second compound 0.01 µM, first compound 0.0316 µM) 99.9% | viability, T/C (second compound 0.01 µM, first compound 0.1 µM) 82.1% | viability, T/C (second compound 0.01 µM, first compound 0.316 µM) 73.8% | viability, T/C (second compound 0.01 µM, first compound 1 µM) 41.4% | viability, T/C (second compound 0.01 µM, first compound 3.16 µM) 38.9% | viability, T/C (second compound 0.01 µM, first compound 10 µM) 33.7% | viability, T/C [1] 108% | viability, T/C [2] 81.9% | viability, T/C [3] 66% | viability, T/C [4] 59.5% | viability, T/C [5] 38.8% | viability, T/C [6] 31.4% | viability, T/C [7] 87.6% | viability, T/C [8] 71.7% | viability, T/C [9] 63.8% | viability, T/C [10] 48.6% | viability, T/C [11] 30.3% | viability, T/C [12] 25.8% | viability, T/C [13] 86.5% | viability, T/C [14] 71.2% | viability, T/C [15] 53% | viability, T/C [16] 44.7% | viability, T/C [17] 29.7% | viability, T/C [18] 21.6% | viability, T/C [19] 70.3% | viability, T/C [20] 55.1% | viability, T/C [21] 39.5% | viability, T/C [22] 30.1% | viability, T/C [23] 23.2% | viability, T/C [24] 23.4%
147 nM: IC50 (second compound 1 µM)
